Results on 84 compounds are retold here after PubChem BioAssay AID1645848.

For this data set the following is noted: buffer; pH 7.4; 6.0 h; 150.0 µM.

SMILES strings stand for the structures. In brackets after ≈: the same amount, converted by molar mass.

As to `Cc1cc(Br)ccc1NC(=O)C(NS(=O)(=O)c1cccs1)c1ccccc1` (centres undefined), the solubility (kinetic) was less than 1 µg/mL. The result for `Fc1cc(Nc2nc(-c3ccncc3)nc3ccccc23)ccc1-n1cncn1` reads less than 1 µg/mL; that for `CC(=O)N1CCc2c(sc3c2c(=O)n(-c2ccccc2Cl)c(=O)n3Cc2cccc(C)c2)C1`, 2.16 µg/mL (≈ 4.5 µM); that for `COc1ccc(Cn2c(C(=O)O)c(CNCc3cccc(OC)c3)c3ccc(C)cc32)cc1`, 6.85 µg/mL (≈ 15.4 µM). Consider `c1ccc2c(Nc3nccs3)nc(-c3ccncc3)nc2c1`, for which the solubility (kinetic) is less than 1 µg/mL. The result for `C/C(=N\NC(N)=S)C1=CCC2C3CC[C@H]4CC(O)CC[C@]4(C)C3CC[C@]12C` (some centres undefined) reads less than 1 µg/mL; that for `CC(=O)c1c(C)[nH]c(C(=O)Nc2ccc(OCCCN(C)C)c(S(=O)(=O)Nc3ccc(Br)cc3)c2)c1C`, 39 µg/mL (≈ 66 µM); that for `Cc1c(C(=O)OCCOc2ccccc2)[nH]c2c1C(=O)CC(c1ccccc1)C2` (centres undefined), less than 1 µg/mL.

In the case of `COc1ccc(-c2cc3nccn3c(Nc3ncccc3C(N)=O)n2)cc1OC`, the solubility (kinetic) turned out to be 24.2 µg/mL (≈ 62.1 µM). The result for `NC(=O)C1CCN(c2nc(-c3cccc(N)c3)cs2)CC1` reads more than 45 µg/mL.

Regarding `Cc1sc(NC(=O)Cc2ccc3c(c2)OCO3)nc1-c1ccc2c(c1)CCN2C`, the solubility (kinetic) was 1.07 µg/mL (≈ 2.63 µM). As for `COc1ccc(-c2c(-c3cc(C(=O)O)ccn3)ncn2C)cc1`, the kinetic solubility was more than 46 µg/mL.

As for `Nc1cc2nc3ccccc3oc-2cc1=O`, the solubility (kinetic) stood at 17.9 µg/mL (≈ 84.6 µM).

`COCCn1ccc2c(C3=CCOCC3)nc(-c3cccc(NC(C)=O)c3)cc21` had a solubility (kinetic) of more than 87 µg/mL. The compound `COc1cccc(CNc2ccc(S(=O)(=O)Nc3ccc(N4CCNCC4)nc3)cc2)c1O` gave a solubility (kinetic) of 55.9 µg/mL (≈ 119 µM). `Cc1cc(C)nc(NC(=S)N2CCN(c3ccc(C(F)(F)F)cc3Cl)CC2)c1` came in with a solubility (kinetic) of 3.08 µg/mL (≈ 7.19 µM). As for `COc1cc(C(=O)NC2CCCc3c2[nH]c2ccccc32)cc(OC)c1OC` (centres undefined), the kinetic solubility was 7.26 µg/mL (≈ 19.1 µM).

`O=C(Nc1nc(-c2ccccn2)cs1)c1cccc(S(=O)(=O)N2CCOCC2)c1` returned a solubility (kinetic) of 24.3 µg/mL (≈ 56.4 µM).

For `COC(=O)c1ccc2nc(NC3=NC(c4[nH]ncc4Cl)C4=C(CCCC4=O)N3)oc2c1` (centres undefined), the solubility (kinetic) is 1.62 µg/mL (≈ 3.69 µM). The result for `COc1ccc(-c2cc(C)nc3c(-c4ccc(OC)c(OC)c4)c(C)nn23)cc1` reads less than 1 µg/mL; that for `COc1cccc(CNc2ccc(S(=O)(=O)Nc3ccc4ccccc4c3)cc2)c1O`, less than 1 µg/mL; that for `COc1ccc(C(=O)N2CCC3(CC2)CN(c2cccc(-c4ccccc4)c2)C3)cc1`, less than 1 µg/mL. The result for `CCOc1ccc(CCNC(=O)c2cc3sccc3n2CCN2CCN(C)CC2)cc1OCC` reads more than 72 µg/mL; that for `COc1ccc(-n2nc(C3CCCN(C(=O)Nc4ccccc4)C3)[nH]c2=O)cc1` (centres undefined), 34.9 µg/mL (≈ 88.8 µM).

In the case of `Oc1ccc(-c2nc(C3CC3)nc3c2CCN(Cc2ccc(F)cc2)CC3)cc1`, the kinetic solubility amounted to 8.86 µg/mL (≈ 22.8 µM).

In turn, `Cc1nc(N2CCN(c3ccccn3)CC2)c2c(C)c(C(=O)Nc3ccc(F)cc3Cl)sc2n1` displayed a kinetic solubility of less than 1 µg/mL. Consider `COC(=O)c1ccc2c(C(=Nc3ccc(N(C)C(=O)CN4CCN(C)CC4)cc3)c3ccccc3)c(O)[nH]c2c1`, for which the kinetic solubility was less than 1 µg/mL. Regarding `C=C1[C@@H](C)C2[C@H](Cc3ccccc3)NC(=O)[C@@]23C(/C=C/C[C@H](C)C[C@@](C)(O)/C=C/[C@@H]3OC(C)=O)[C@@H]1O` (some centres undefined), the solubility (kinetic) was 1.9 µg/mL (≈ 3.85 µM). The result for `CN(C)C(=O)NC1CCC(CCN2CCN(c3cccc(Cl)c3Cl)CC2)CC1` (centres undefined) reads 34.8 µg/mL (≈ 81.3 µM); that for `COCC(C)NCc1cc2ccc(OC)cc2nc1N1CCN(c2ccc(F)cc2)CC1` (centres undefined), 39.5 µg/mL (≈ 90.1 µM); that for `O=C1CCCC2=C1C1(CCCC1)N=C(Nc1nc3cc(Cl)ccc3o1)N2`, less than 1 µg/mL.

Compound `Cc1cc(C)nc(NC(=S)N2CCN(c3ccc(Cl)cc3[N+](=O)[O-])CC2)c1` returned a solubility (kinetic) of 3.08 µg/mL (≈ 7.59 µM). The result for `Cc1ccc(S(=O)(=O)N2CCN(C(=O)c3cc4c(s3)CCC4)CC2)cc1` reads less than 1 µg/mL. The result for `CCCc1oc2ccc(NS(=O)(=O)c3ccc(OC)cc3)cc2c1C(=O)OCC` reads less than 1 µg/mL; that for `COc1cc(=O)n2c(c1C(=O)N(C)Cc1cscn1)CCN(C(=O)c1ccc(C)cc1C)CC2`, more than 71 µg/mL; that for `NC(=O)C1CCN(c2ncc(-c3cccc(N4CCCC4)c3)s2)CC1`, 11.6 µg/mL (≈ 32.6 µM). `COc1cc(Nc2nc(-c3ccncc3)nc3ccccc23)ccc1F` had a solubility (kinetic) of less than 1 µg/mL. `CN[C@@H]1C[C@@H](c2ccc(Cl)c(Cl)c2)c2ccccc21` had a solubility (kinetic) of more than 43 µg/mL. In turn, `CCC(CC)c1cc([C@H]2CN3CC[C@H]2C[C@@H]3CNS(=O)(=O)c2cccs2)nc(-c2ccncc2)n1` displayed a kinetic solubility of 52.2 µg/mL (≈ 102 µM). In turn, `COc1ccc(-c2ccc(C(=O)NC3CC(c4cc(=O)[nH]c(N)n4)C3)o2)cc1` (centres undefined) had a solubility (kinetic) of 30.4 µg/mL (≈ 79.9 µM). This solubility kinetic lies about 1.7-fold lower than the previous one.

Turning to `CC1Oc2cc3c(-c4c(O)cc(O)c5c(O)c6c(cc45)OC(C)C(C)C6=O)c(O)cc(O)c3c(O)c2C(=O)C1C` (centres undefined), the kinetic solubility is 53.5 µg/mL (≈ 97.8 µM). The result for `CC(=O)c1c(C)[nH]c(C(=O)Nc2cccc([S+](=O)([O-])Nc3ccncc3)c2)c1C` reads more than 61 µg/mL. The result for `CC(=O)Nc1ccc(CN2CCc3nc(C(C)C)nc(-c4ccc(Cl)cc4)c3CC2)cc1` reads 33.1 µg/mL (≈ 73.7 µM); that for `O=S(=O)(Nc1nc2n(n1)C(c1ccccc1)C=C(c1ccc(Cl)cc1)N2)c1ccccc1` (centres undefined), 1.09 µg/mL (≈ 2.36 µM). The result for `O=C1CCCC2=C1C(c1ccccc1C(F)(F)F)N=C(Nc1nc3ccccc3o1)N2` (centres undefined) reads less than 1 µg/mL; that for `Cc1ccc(NS(=O)(=O)c2cccc(C(=O)Nc3nc(-c4ccccc4)cs3)c2)cc1`, less than 1 µg/mL; that for `COc1ccccc1CNS(=O)(=O)c1ccc(-c2cnc(C3CC3)o2)cc1`, 2.61 µg/mL (≈ 6.79 µM). As to `COC(=O)C1=C(C)NC(C)=C(C(=O)O[C@@H]2CCCN(Cc3ccccc3)C2)[C@@H]1c1cccc([N+](=O)[O-])c1`, the kinetic solubility was less than 1 µg/mL. The result for `CNCc1ccc(-c2cc(-c3nc(-c4ccc(S(=O)(=O)C(C)C)cc4)cnc3N)on2)cc1` reads 27.3 µg/mL (≈ 59 µM). The result for `CCOC(=O)C1CCN(c2ncnc3c2c(-c2ccccc2)cn3-c2ccccc2)CC1` reads less than 1 µg/mL; that for `CC1(C)C[C@@H]2C[C@@](C)(CN2S(=O)(=O)c2ccc(C(=O)Nc3ccc(Cl)c(S(=O)(=O)N4CCOCC4)c3)cc2)C1`, less than 1 µg/mL. For the compound `N#Cc1cc(-c2nc(Nc3ccc(F)c(F)c3)c3ccccc3n2)ccn1`, the solubility (kinetic) was less than 1 µg/mL. As for `CCOC(=O)c1cc(-c2ccco2)nc2c1c(C)nn2CCC#N`, the kinetic solubility came out at 9.9 µg/mL (≈ 30.5 µM).

On to `CN(C)C(=O)C1CCN(c2nc(-c3ccc(Br)cc3)cs2)CC1`, for which the solubility (kinetic) turned out to be 1.8 µg/mL (≈ 4.56 µM). The result for `CN1CCCC(CC2c3ccccc3Sc3ccccc32)C1.Cl` (centres undefined) reads more than 46 µg/mL; that for `Cc1ccc(S(=O)(=O)Nc2ccccc2C(=O)Nc2nc(-c3ccccc3)co2)cc1`, less than 1 µg/mL. The result for `N#Cc1ccc(C(=O)Nc2ccc(Cl)c(-c3nc4cc(Cl)ccc4o3)c2)c(F)c1` reads less than 1 µg/mL; that for `COc1ccc(-c2noc(CSc3nnc(Cc4ccccc4)n3-c3ccc(F)cc3)n2)cc1`, less than 1 µg/mL; that for `O=S(=O)(Nc1cnc2ccccc2c1)c1ccc(NCc2cccc(Cl)c2O)cc1`, 1.84 µg/mL (≈ 4.18 µM).

Compound `Cc1nc(NC(=O)C2CC(=O)N(c3n[nH]c4cc(Br)ccc34)C2)sc1C` (centres undefined) came in with a solubility (kinetic) of less than 1 µg/mL. The result for `O=C(CCc1ccccc1)Nc1ccc(S(=O)(=O)Nc2nccs2)cc1` reads 10.6 µg/mL (≈ 27.5 µM). The result for `CCOc1ccc(CCNC(=O)c2cc3sccc3n2Cc2ccc(-n3cncn3)cc2)cc1OCC` reads less than 1 µg/mL.

Compound `Fc1cccc(-c2ccc(Nc3nc(-c4ccncc4)nc4ccccc34)cc2F)c1` displayed a solubility (kinetic) of less than 1 µg/mL. The result for `Cc1ccc(S(=O)(=O)Nc2ccc(C(=O)Nc3nc(-c4ccc(Cl)cc4)cs3)cc2)cc1` reads less than 1 µg/mL; that for `CCOC(=O)Cc1ccc(NC(=O)n2ncc3cc(Cl)ccc32)cc1`, less than 1 µg/mL; that for `c1ccc(-c2csc3ncnc(Sc4nnn(-c5ccccc5)n4)c23)cc1`, less than 1 µg/mL.

Take `CC(=O)NCCNC(=O)c1ccc(-c2ncc3cnc(-c4cccc(F)c4)cn23)cc1`: the kinetic solubility was more than 92 µg/mL. The result for `Cc1ccc(-c2ccc(CNc3nc(-c4ccccc4C(C)C)ncc3C)cc2)cn1` reads less than 1 µg/mL; that for `CN(C)CCNC(=O)c1nc2nc(-c3ccccc3)c(-c3cccc(F)c3)cc2n1C`, 51.3 µg/mL (≈ 123 µM); that for `CC(=O)c1c(C)[nH]c(C(=O)Nc2cccc(S(=O)(=O)N3CCCCCC3)c2)c1C`, 2.11 µg/mL (≈ 5.05 µM). The result for `COc1cccc(CNc2ccc(S(=O)(=O)Nc3cccnc3)cc2)c1O` reads 3.93 µg/mL (≈ 10.2 µM). The compound `NC(=O)C1CCN(c2ncc(-c3cccc(N4CCCCC4)c3)s2)CC1` yielded a kinetic solubility of 32.9 µg/mL (≈ 88.8 µM). Against the preceding compound, the solubility kinetic is about 8.4-fold higher. `c1ccc(CNc2nc(NCc3ccccc3)c3ccccc3n2)cc1`: the kinetic solubility is less than 1 µg/mL.

In turn, `c1ccc2[nH]c(Nc3nc(-c4ccncc4)nc4ccccc34)nc2c1` showed a solubility (kinetic) of less than 1 µg/mL. `N#C/C(=C\c1ccc(-c2ccc(C(=O)O)cc2)o1)c1nc2ccccc2[nH]1` came in with a solubility (kinetic) of less than 1 µg/mL.

`Fc1ccccc1-c1nc(NCc2ccc(-c3cccnc3)cc2)c2ccccc2n1` showed a kinetic solubility of less than 1 µg/mL. The result for `O=C(Nc1cccc(C(F)(F)F)c1)Nc1cc(S(=O)(=O)NC2CC2)ccc1-c1ccsc1` reads less than 1 µg/mL; that for `Cc1ccc(S(=O)(=O)Nc2cc(C)ccc2C(=O)Nc2nc(-c3ccccc3)cs2)cc1`, less than 1 µg/mL. The result for `CCOC(=O)C1CCN(C(=O)C2(NC(=O)Nc3ccccc3Cl)CCC2)CC1` reads 43.2 µg/mL (≈ 106 µM); that for `CCc1ccc(NC(=O)c2[nH]c(C)c(C(C)=O)c2C)cc1S(=O)(=O)Nc1ccc(C#N)cc1`, 2.19 µg/mL (≈ 4.72 µM); that for `Fc1cc(Nc2nc(-c3ccncc3)nc3ccccc23)ccc1-c1ccc(F)c(F)c1F`, less than 1 µg/mL.

For the compound `Cc1ccc(-c2nc(C)c(C(=O)Nc3ccc4c(c3)C(=O)N3CCC[C@H]3C(=O)N4)s2)cc1`, the solubility (kinetic) is 4.88 µg/mL (≈ 10.9 µM). The result for `CN1C(=O)c2ccccc2[S@](=O)c2ccc(C(=O)NCc3ccc(Cl)cc3)cc21` reads 4.37 µg/mL (≈ 10.3 µM); that for `O=[S+]([O-])(Nc1nccs1)c1ccc(NCc2cccc(Cl)c2)cc1`, 2.53 µg/mL (≈ 6.67 µM).
